# Measured values: US20110105380A1, “Protection of Nano-Scale Particles from Immune Cell Uptake” (THE TRUSTEES OF THE UNIVERSITY OF PENNSYLVANIA, priority 2009, published 2011)
# Columns and labels:
# [1] = test system: THP-1 macrophages; assay: Phagocytosis of IgG-opsonized sheep RBCs by THP-1 macrophages; type: cell-based, human
# Description: FIG. 5, comprising FIGS. 5A-5D, illustrates human macrophages and monocytes inhibited by human-CD47. FIG. 5A depicts DIC images of THP-1 phagocytes plus CD47-blocked, IgG-opsonized human-RBC, using F(ab′)2 made from monoclonal B6H12. The scale bars are […]. FIG. 5B depicts human peripheral blood monocyte plus CD47-blocked human-RBC following lysis after 45 min of phagocytosis: PKH26 labeled human RBC are depicted in the right hand panel: Lysed RBC labeled with FITC-anti-Fc indicates the cell is not internalized. Human-RBC and Sheep-RBC were phagocytosed by THP-1 cells in FIG. 5C, or human monocytes in FIG. 5D, depicting phagocytosis increases with opsonization. Inset depicts blebbistatin treatment of ShRBC showing decrease in phagocytosis. Phagocytosis is measured as the ratio of internalized RBCs per phagocyte with 200 phagocytes counted in triplicate experiments (±SEM).
# FIG. 7 illustrates that myosin increases the efficiency of phagocytosis. Phagocytosis of IgG-opsonized sheep-RBC were measured as a ratio of internalized RBCs per phagocyte with 200 phagocytes counted in triplicate experiments (±SEM). The level of NMM IIA activity is normalized to WT levels in THP-1, with relative levels of knockdown or overexpression quantified by immunofluorescence and Western blot. Results for phagocytosis of the IgG-opsonized sheep-RBC were fit to a line; where the intercept approximates the result for human-RBC. The inset bar graph depicts blebbistatin inhibition of ShRBC phagocytosis by GFP-NMMIIA expressing WT THP-1.
# Phagocytosis by the human-derived THP-1 macrophages of IgG-opsonized RBCs was studied by imaging in DIC microscopy. […] RBC membranes were prelabeled with PKH26, and non-engulfed RBCs were labeled with a fluorescein-labeled antibody against the Fc of the IgG-opsonin. […] A small number of human RBCs were engulfed for either type of phagocyte. […]
# In light of the myosin differences seen by fluorescence at the various synapses (FIGS. 2-4), the effect of blebbistatin-inhibited myosin on phagocytosis was studied. […]
# [2] = test system: THP-1 macrophages; assay: Phagocytosis of IgG-opsonized streptavidin beads with or without hCD47 by THP-1 macrophages; type: cell-based, human
# Description: The extracellular immunoglobulin-like domains of human CD47 (hCD47) was recombinantly expressed with a spacer domain (Brown et al., 1994, Protein Eng. 7:515-21; Brown et al., 1998, J. Exp. Med. 188:2083-90) plus a C-terminal biotinylation site. […] The beads were opsonized by pretreatment with anti-streptavidin to again induce FcR-mediated phagocytosis (for 45 minutes at 37° C.), and non-engulfed beads were detected with a flourescein anti-Fc against the IgG-opsonin. The number of adherent IgG-opsonized beads per phagocyte was independent of hCD47 (not shown).
# For phagocytosis assays, macrophages were plated in 4 cm^2, or 2 cm^2 Lab-Tek II Chambered Coverglass (Nalge Nunc International, Naperville, Ill.) at 1.5×10^5/cm^2. Streptavidin polystyrene beads of different radius: 3.5 μm, 1.1 μm, 160 nm (Spherotech) and 100 nm (Ademtech) were added to macrophages at a ratio of 2:1, 20:1, 277:1, and 2206:1 respectively and incubate at 37° C. for 45 min. […] Non-phagocytosed beads were washed with PBS. Cells were fixed with 5% formaldehyde (Fisher Scientific) for 5 minutes, followed by immediate replacement with PBS. For differentiation of non-internalized beads, beads were labeled with a primary antibody, rabbit anti-streptavidin (Sigma) at 1:1000 in PBS for 20 min at 25° C. A second antibody, anti-rabbit R-PE (Sigma) was added at 1:1000 in PBS to the cells and incubated for an additional 20 minutes at 25° C. Cells were then washed with PBS/0.4% BSA and then quantified by light and fluorescent microscopy. At least 200 cells were scored per well and experiments were repeated at least three times.
# For stimulated phagocytosis assays, beads with or without CD47 were incubated with rabbit anti-streptavidin as the IgG opsonin. Beads were opsonized at a concentration 1:1000 for 30 min at 25° C. Opsonized beads were washed 2× and resuspended in 50 μl of PBS/0.4% BSA. Phagocytes were washed with PBS and uningested beads were labeled as described above.
# For cytoskeletal involvement at the phagocytic synapse, streptavidin beads opsonized with rabbit anti-streptavidin FITC. Opsonized beads of different sizes were added to THP-1 cells, PMA treated and immediately placed at 4° C. for 10 min to synchronize phagocytosis. […] For studies involving blebbistatin (EMD Biosciences), macrophages were treated for 10 min at 4° C. prior to temperature increase to 37° C. or for 45 min and 37° C. Macrophages treated with DMSO were used to verify no solvent effects.
# Beads were opsonized at saturating densities of IgG, and over a 20-fold range of CD47 densities, the number of internalized beads per THP-1 was measured. […] The normal level of CD47 density found on human RBC (Subramanian et al., 2006, Blood 107(6):2548-2556) was indicated by the vertical bars and humans with certain Rhnull phenotypes with reduced levels of CD47 (Mouro-Chanteloup et al., 2003, Blood 101 (1):338-344; Arndt et al., 2004, Br. J. Haematol. 125(3):412-4) was indicated by the vertical bars. The minimum number of CD47 inhibition appears to be consistent across a 30-fold particle size range as depicted by the vertical bars.
compound,measurement,setting,value
Cc1ccc2c(c1)C(=O)C1(O)CCN(c3ccccc3)C1=N2 (stereo not drawn) [blebbistatin],inhibition of ShRBC phagocytosis by GFP-NMM IIA expressing THP-1,[1]; 5 μM blebbistatin,~50%
same,engulfment of sheep RBCs by THP-1 macrophages,"[1]; blebbistatin treatment, FIG. 5C",inhibited by blebbistatin to an extent similar to that of CD47 on human RBCs
same,Ki,"[1]; engulfment of sheep RBCs by THP-1 macrophages, dose-response (not shown), read-out: Ki-blebb for blebbistatin inhibition of phagocytosis",5 µM
same,uptake of 100 nm IgG-opsonized particles,[2]; THP-1 treated with 50 μM blebbistatin vs DMSO,decrease in uptake
same,phagocytosis of CD47-null beads,"[2]; blebbistatin 50 μM, 10 min pretreatment of THP-1",inhibited phagocytosis of CD47-null beads to a level similar as hCD47 beads
same,uptake of 1.1 μm IgG-opsonized particles,"[2]; blebbistatin treatment, FIG. 16D",comparable results
